Each molecule was assayed against human A2A receptor (A2AR) (Homo sapiens (Human), UniProt P29274) (assay: Luciferase reporter assay (HEK293-A2AR-luc2p/CRE/Hygro cells)). Conditions: 3 nM CGS21680, 5 h incubation.
Type: cell-based
Protocol: HEK293 cells were maintained in Dulbecco's modified Eagle's medium (DMEM, Gibco) supplemented with 10% fetal bovine serum (FBS, Thermo Scientific), 100 units/mL penicillin (Gibco), and 0.1 mg/mL streptomycin (Gibco) in a humidified 37° C. environment with 5% CO2. Plasmid encoding wild-type human A2A receptor (A2AR) (in pcDNA3.1) was synthesized by Genscript (Nanjing, China). Transfection of the plasmids was performed in 6-well plates with 4×10^5 cells using Lipofectamin 2000 (ThermoFisher Scientific) according to the instruction of the manufacturer. Cell clones that stably express A2AR were established and maintained in the same complete medium as the HEK293 cells in addition of G-418 (Gibico). Expression level of A2AR in each single cell clone was determined using immunoblotting and FACS method. HEK293-A2AR stable cells were then transfected with pGL4.29[luc2P/CRE/Hygro] (Promega) luciferase reporter plasmid for establishing the HEK293-A2AR-luc2p/CRE/Hygro stable cell line.
HEK293-A2AR-luc2p/CRE/Hygro cells were seeded at a density of 5,000 cells/well in DMEM with 1% FBS and 1 U/mL adenosine deaminase (ADA) (Sigma). After 18 h, the cells were treated with 3 nM CGS21680 plus a series dilution of A2AR antagonist, the compounds disclosed herein at the concentration of 0.1˜10000 nM, prepared in DMEM with 1% FBS. After 5 h incubation, the luciferase activity in cells were measured using the Bright-Glo Luciferase Assay System (Promega) according to manufacturer's instructions. The luminescence signal was measured using a PHERAstar FS plate reader (BMG Labtech). […] Maximal luminescence intensity was determined in the presence of 3 nM CGS21680 and was set as 100%. The IC50 value was calculated from a dose dependent inhibition curve across the range of compound concentrations.

human A2A receptor (A2AR), sequence (P29274 whole entry): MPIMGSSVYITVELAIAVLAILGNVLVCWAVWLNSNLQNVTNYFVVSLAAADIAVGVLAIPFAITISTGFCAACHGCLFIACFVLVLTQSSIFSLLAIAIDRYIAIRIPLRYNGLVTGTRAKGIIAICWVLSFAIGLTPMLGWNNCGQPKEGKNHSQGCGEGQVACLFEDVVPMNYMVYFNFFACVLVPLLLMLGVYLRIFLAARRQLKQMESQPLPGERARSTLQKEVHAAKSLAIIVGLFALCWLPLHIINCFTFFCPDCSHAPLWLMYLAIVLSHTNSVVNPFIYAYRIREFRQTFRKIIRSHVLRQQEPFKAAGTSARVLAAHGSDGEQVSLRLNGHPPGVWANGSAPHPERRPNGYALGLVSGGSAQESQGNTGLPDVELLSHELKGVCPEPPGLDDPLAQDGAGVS

Structure (SMILES) | IC50 [nM]
Nc1nc2c(cnn2C(C(=O)NC2CCCC2)c2ccccc2)c2nc(-c3ccco3)nn12 (stereo not shown) [Example 12, 2-(5-amino-2-(furan-2-yl)-7H-pyrazolo[4,3-e][1,2,4]triazolo[1,5-c]pyrimidin-7-yl)-N-cyclopentyl-2-phenylacetamide] | 10.2
Nc1nc2c(cnn2C(C(=O)NC2CCCc3ccccc32)c2ccccc2)c2nc(-c3ccco3)nn12 (stereo not shown) [Example 13, 2-(5-amino-2-(furan-2-yl)-7H-pyrazolo[4,3-e][1,2,4]triazolo[1,5-c]pyrimidin-7-yl)-2-phenyl-N-(1,2,3,4-tetrahydronaphthalen-1-yl)acetamide] | 8.3
Nc1nc2c(cnn2C(C(=O)NC2CCc3ccccc32)c2ccccc2)c2nc(-c3ccco3)nn12 (stereo not shown) [Example 14, 2-(5-amino-2-(furan-2-yl)-7H-pyrazolo[4,3-e][1,2,4]triazolo[1,5-c]pyrimidin-7-yl)-N-(2,3-dihydro-1H-inden-1-yl)-2-phenylacetamide] | 6.1
Nc1nc2c(cnn2C(C(=O)N[C@@H]2CCOc3ccccc32)c2ccccc2)c2nc(-c3ccco3)nn12 (stereo partly drawn) [Example 15, 2-(5-amino-2-(furan-2-yl)-7H-pyrazolo[4,3-e][1,2,4]triazolo[1,5-c]pyrimidin-7-yl)-N—((R)-chroman-4-yl)-2-phenylacetamide] | 7.9
Nc1nc2c(cnn2C(C(=O)N[C@H]2CCOc3ccccc32)c2ccccc2)c2nc(-c3ccco3)nn12 (stereo partly drawn) [Example 16, 2-(5-amino-2-(furan-2-yl)-7H-pyrazolo[4,3-e][1,2,4]triazolo[1,5-c]pyrimidin-7-yl)-N—((S)-chroman-4-yl)-2-phenylacetamide] | 44.6
Nc1nc2c(cnn2C(C(=O)NCc2cccc(C3(O)CCC3)n2)c2ccccc2)c2nc(-c3ccco3)nn12 (stereo not shown) [Example 18, 2-(5-amino-2-(furan-2-yl)-7H-pyrazolo[4,3-e][1,2,4]triazolo[1,5-c]pyrimidin-7-yl)-N-((6-(1-hydroxycyclobutyl)pyridin-2-yl)methyl)-2-phenylacetamide] | 0.9
NC(=O)C(c1ccccc1)n1ncc2c1nc(N)n1nc(-c3ccco3)nc21 (stereo not shown) [Example 19, 2-(5-amino-2-(furan-2-yl)-7H-pyrazolo[4,3-e][1,2,4]triazolo[1,5-c]pyrimidin-7-yl)-2-phenylacetamide] | 4.5
CCCC(C(=O)NCc1ccccc1OC)n1ncc2c1nc(N)n1nc(-c3ccco3)nc21 (stereo not shown) [Example 21, 2-(5-amino-2-(furan-2-yl)-7H-pyrazolo[4,3-e][1,2,4]triazolo[1,5-c]pyrimidin-7-yl)-N-(2-methoxybenzyl)pentanamide] | 15.3
Nc1nc2c(cnn2C(C(=O)NCc2cccc(C(F)(F)F)c2)c2ccccc2)c2nc(-c3ccco3)nn12 (stereo not shown) [Example 22, 2-(5-amino-2-(furan-2-yl)-7H-pyrazolo[4,3-e][1,2,4]triazolo[1,5-c]pyrimidin-7-yl)-2-phenyl-N-(3-(trifluoromethyl)benzyl)acetamide] | 1.4
Cc1cccc(CNC(=O)C(c2ccccc2)n2ncc3c2nc(N)n2nc(-c4ccco4)nc32)c1 (stereo not shown) [Example 23, 2-(5-amino-2-(furan-2-yl)-7H-pyrazolo[4,3-e][1,2,4]triazolo[1,5-c]pyrimidin-7-yl)-N-(3-methylbenzyl)-2-phenylacetamide] | 1.9
Nc1nc2c(cnn2C(C(=O)NCc2ccc(OC(F)(F)F)cc2)c2ccccc2)c2nc(-c3ccco3)nn12 (stereo not shown) [Example 24, 2-(5-amino-2-(furan-2-yl)-7H-pyrazolo[4,3-e][1,2,4]triazolo[1,5-c]pyrimidin-7-yl)-2-phenyl-N-(4-(trifluoromethoxy)benzyl)acetamide] | 5.6
Cc1ccc(CNC(=O)C(c2ccccc2)n2ncc3c2nc(N)n2nc(-c4ccco4)nc32)cc1 (stereo not shown) [Example 25, 2-(5-amino-2-(furan-2-yl)-7H-pyrazolo[4,3-e][1,2,4]triazolo[1,5-c]pyrimidin-7-yl)-N-(4-methylbenzyl)-2-phenylacetamide] | 1.5
Nc1nc2c(cnn2C(C(=O)NCc2ccc(F)cc2)c2ccccc2)c2nc(-c3ccco3)nn12 (stereo not shown) [Example 26, 2-(5-amino-2-(furan-2-yl)-7H-pyrazolo[4,3-e][1,2,4]triazolo[1,5-c]pyrimidin-7-yl)-N-(4-fluorobenzyl)-2-phenylacetamide] | 2.6
COc1ccccc1CNC(=O)C(CC(C)C)n1ncc2c1nc(N)n1nc(-c3ccco3)nc21 (stereo not shown) [Example 27, 2-(5-amino-2-(furan-2-yl)-7H-pyrazolo[4,3-e][1,2,4]triazolo[1,5-c]pyrimidin-7-yl)-N-(2-methoxybenzyl)-4-methylpentanamide] | 16.1
COc1ccc(CNC(=O)C(c2ccccc2)n2ncc3c2nc(N)n2nc(-c4ccco4)nc32)cc1 (stereo not shown) [Example 28, 2-(5-amino-2-(furan-2-yl)-7H-pyrazolo[4,3-e][1,2,4]triazolo[1,5-c]pyrimidin-7-yl)-N-(4-methoxybenzyl)-2-phenylacetamide] | 1.6
Nc1nc2c(cnn2C(C(=O)NCc2ccc(C(F)(F)F)cc2)c2ccccc2)c2nc(-c3ccco3)nn12 (stereo not shown) [Example 29, 2-(5-amino-2-(furan-2-yl)-7H-pyrazolo[4,3-e][1,2,4]triazolo[1,5-c]pyrimidin-7-yl)-2-phenyl-N-(4-(trifluoromethyl)benzyl)acetamide] | 1.3

Next, values leading:

IC50 [nM] | Structure (SMILES)
3 | Nc1nc2c(cnn2C(C(=O)NCCc2ccccc2)c2ccccc2)c2nc(-c3ccco3)nn12 (stereo not shown) [Example 17, 2-(5-amino-2-(furan-2-yl)-7H-pyrazolo[4,3-e][1,2,4]triazolo[1,5-c]pyrimidin-7-yl)-N-phenethyl-2-phenylacetamide]
14.6 | Nc1nc2c(cnn2C(C(=O)NC2COc3ccccc32)c2ccccc2)c2nc(-c3ccco3)nn12 (stereo not shown) [Example 20, 2-(5-amino-2-(furan-2-yl)-7H-pyrazolo[4,3-e][1,2,4]triazolo[1,5-c]pyrimidin-7-yl)-N-(2,3-dihydrobenzofuran-3-yl)-2-phenylacetamide]
10.8 | CC(C(=O)NCCc1ccccc1)(c1ccccc1)n1ncc2c1nc(N)n1nc(-c3ccco3)nc21 (stereo not shown) [Example 30, 2-(5-amino-2-(furan-2-yl)-7H-pyrazolo[4,3-e][1,2,4]triazolo[1,5-c]pyrimidin-7-yl)-N-phenethyl-2-phenylpropanamide]
5.8 | CC(C(=O)NCC1(O)COC1)(c1ccccc1)n1ncc2c1nc(N)n1nc(-c3ccco3)nc21 (stereo not shown) [Example 31, 2-(5-amino-2-(furan-2-yl)-7H-pyrazolo[4,3-e][1,2,4]triazolo[1,5-c]pyrimidin-7-yl)-N-((3-hydroxyoxetan-3-yl)methyl)-2-phenylpropanamide]
28 | C[C@@](C(=O)NCC1(O)COC1)(c1ccccc1)n1ncc2c1nc(N)n1nc(-c3ccco3)nc21 [Example 31A]
25 | CNC(=O)C(C)(c1ccccc1)n1ncc2c1nc(N)n1nc(-c3ccco3)nc21 (stereo not shown) [Example 32, 2-(5-amino-2-(furan-2-yl)-7H-pyrazolo[4,3-e][1,2,4]triazolo[1,5-c]pyrimidin-7-yl)-N-methyl-2-phenylpropanamide]
8.4 | CC(C(=O)N[C@H]1CC[C@@](C)(O)CC1)(c1ccccc1)n1ncc2c1nc(N)n1nc(-c3ccco3)nc21 (stereo partly drawn) [Example 33, 2-(5-amino-2-(furan-2-yl)-7H-pyrazolo[4,3-e][1,2,4]triazolo[1,5-c]pyrimidin-7-yl)-(trans)-N-(4-hydroxy-4-methylcyclohexyl)-2-phenylpropanamide]
9.5 | CC(C(=O)Nc1ccccc1)(c1ccccc1)n1ncc2c1nc(N)n1nc(-c3ccco3)nc21 (stereo not shown) [Example 34, 2-(5-amino-2-(furan-2-yl)-7H-pyrazolo[4,3-e][1,2,4]triazolo[1,5-c]pyrimidin-7-yl)-N,2-diphenylpropanamide]
10.7 | CC(C(=O)NCc1ccccc1)(c1ccccc1)n1ncc2c1nc(N)n1nc(-c3ccco3)nc21 (stereo not shown) [Example 35, 2-(5-amino-2-(furan-2-yl)-7H-pyrazolo[4,3-e][1,2,4]triazolo[1,5-c]pyrimidin-7-yl)-N-benzyl-2-phenylpropanamide]
12.9 | CC(C(=O)NC1CCC(O)C1)(c1ccccc1)n1ncc2c1nc(N)n1nc(-c3ccco3)nc21 (stereo not shown) [Example 36, 2-(5-amino-2-(furan-2-yl)-7H-pyrazolo[4,3-e][1,2,4]triazolo[1,5-c]pyrimidin-7-yl)-N-(3-hydroxycyclopentyl)-2-phenylpropanamide]
500 | CC(C(=O)NC1(CO)CC1)(c1ccccc1)n1ncc2c1nc(N)n1nc(-c3ccco3)nc21 (stereo not shown) [Example 37, 2-(5-amino-2-(furan-2-yl)-7H-pyrazolo[4,3-e][1,2,4]triazolo[1,5-c]pyrimidin-7-yl)-N-(1-(hydroxymethyl)cyclopropyl)-2-phenylpropanamide]
22.6 | C[C@@H](O)CNC(=O)C(C)(c1ccccc1)n1ncc2c1nc(N)n1nc(-c3ccco3)nc21 (stereo partly drawn) [Example 38, 2-(5-amino-2-(furan-2-yl)-7H-pyrazolo[4,3-e][1,2,4]triazolo[1,5-c]pyrimidin-7-yl)-N—((R)-2-hydroxypropyl)-2-phenylpropanamide]
